Results published in ChEMBL document CHEMBL5724914, “Linking interpersonal differences in gut microbiota composition and drug biotransformation activity” (2024).

What was measured:
[1] = The drug is tested on Z-028 corresponding to mouse gut metagenome with ENA study accession number: PRJEB37062 and ENA sample accession number: ERS12561827 for biotransformation under anaerobic condition. The drug concentrations were measured over 9 timepoints collected between 0 and 24 hours of incubation by liquid-chromatography-coupled mass spectrometry (LC–MS); conditions: 2 µM
[2] = The drug is tested on WLS-039 corresponding to human gut metagenome with ENA study accession number: PRJEB37062 and ENA sample accession number: ERS12561746 for biotransformation under anaerobic condition. The drug concentrations were measured over 9 timepoints collected between 0 and 24 hours of incubation by liquid-chromatography-coupled mass spectrometry (LC–MS); conditions: 2 µM
[3] = human gut metagenome, 24 h, 2 µM
[4] = The drug is tested on Z-030 corresponding to mouse gut metagenome with ENA study accession number: PRJEB37062 and ENA sample accession number: ERS12561829 for biotransformation under anaerobic condition. The drug concentrations were measured over 9 timepoints collected between 0 and 24 hours of incubation by liquid-chromatography-coupled mass spectrometry (LC–MS); conditions: 2 µM
[5] = human gut metagenome, 24 h, 2 µM; remark: listed apart in the source
[6] = The drug is tested on Z-009 corresponding to pig gut metagenome with ENA study accession number: PRJEB37062 and ENA sample accession number: ERS12561809 for biotransformation under anaerobic condition. The drug concentrations were measured over 9 timepoints collected between 0 and 24 hours of incubation by liquid-chromatography-coupled mass spectrometry (LC–MS); conditions: 2 µM
[7] = human gut metagenome, 24 h, 2 µM; remark: listed apart in the source
[8] = human gut metagenome, 24 h, 2 µM; remark: listed apart in the source
[9] = human gut metagenome, 24 h, 2 µM; remark: listed apart in the source
[10] = human gut metagenome, 24 h, 2 µM; remark: listed apart in the source
[11] = The drug is tested on Z-017 corresponding to mouse gut metagenome with ENA study accession number: PRJEB37062 and ENA sample accession number: ERS12561816 for biotransformation under anaerobic condition. The drug concentrations were measured over 9 timepoints collected between 0 and 24 hours of incubation by liquid-chromatography-coupled mass spectrometry (LC–MS); conditions: 2 µM
[12] = The drug is tested on Z-026 corresponding to metagenome with ENA study accession number: PRJEB37062 and ENA sample accession number: ERS12561825 for biotransformation under anaerobic condition. The drug concentrations were measured over 9 timepoints collected between 0 and 24 hours of incubation by liquid-chromatography-coupled mass spectrometry (LC–MS); conditions: 2 µM
[13] = The drug is tested on Z-005 corresponding to metagenome with ENA study accession number: PRJEB37062 and ENA sample accession number: ERS12561805 for biotransformation under anaerobic condition. The drug concentrations were measured over 9 timepoints collected between 0 and 24 hours of incubation by liquid-chromatography-coupled mass spectrometry (LC–MS); conditions: 2 µM
[14] = The drug is tested on WLS-006 corresponding to human gut metagenome with ENA study accession number: PRJEB37062 and ENA sample accession number: ERS12561741 for biotransformation under anaerobic condition. The drug concentrations were measured over 9 timepoints collected between 0 and 24 hours of incubation by liquid-chromatography-coupled mass spectrometry (LC–MS); conditions: 2 µM
[15] = The drug is tested on Z-007 corresponding to rat gut metagenome with ENA study accession number: PRJEB37062 and ENA sample accession number: ERS12561807 for biotransformation under anaerobic condition. The drug concentrations were measured over 9 timepoints collected between 0 and 24 hours of incubation by liquid-chromatography-coupled mass spectrometry (LC–MS); conditions: 2 µM
[16] = human gut metagenome, 24 h, 2 µM; remark: listed apart in the source
[17] = human gut metagenome, 24 h, 2 µM; remark: listed apart in the source
[18] = The drug is tested on WLS-240 corresponding to human gut metagenome with ENA study accession number: PRJEB37062 and ENA sample accession number: ERS12561773 for biotransformation under anaerobic condition. The drug concentrations were measured over 9 timepoints collected between 0 and 24 hours of incubation by liquid-chromatography-coupled mass spectrometry (LC–MS); conditions: 2 µM
[19] = The drug is tested on Z-004 corresponding to metagenome with ENA study accession number: PRJEB37062 and ENA sample accession number: ERS12561804 for biotransformation under anaerobic condition. The drug concentrations were measured over 9 timepoints collected between 0 and 24 hours of incubation by liquid-chromatography-coupled mass spectrometry (LC–MS); conditions: 2 µM
[20] = human gut metagenome, 24 h, 2 µM; remark: listed apart in the source
Also: call rule not given here.

CCCN(CCC)CCc1cccc2c1CC(=O)N2 [ROPINIROLE]
Bacterial Biotransformation [1]: Compound NOT metabolized | Bacterial Biotransformation [2]: Compound NOT metabolized | Bacterial Biotransformation [3]: Compound NOT metabolized | Bacterial Biotransformation [4]: Compound NOT metabolized | Bacterial Biotransformation [5]: Compound metabolized | Bacterial Biotransformation [6]: Compound NOT metabolized | Bacterial Biotransformation [7]: Compound NOT metabolized | Bacterial Biotransformation [8]: Compound NOT metabolized | Bacterial Biotransformation [9]: Compound NOT metabolized | Bacterial Biotransformation [10]: Compound NOT metabolized | Bacterial Biotransformation [11]: Compound NOT metabolized | Bacterial Biotransformation [12]: Compound NOT metabolized | Bacterial Biotransformation [13]: Compound NOT metabolized | Bacterial Biotransformation [14]: Compound NOT metabolized | Bacterial Biotransformation [15]: Compound NOT metabolized | Bacterial Biotransformation [16]: Compound metabolized | Bacterial Biotransformation [17]: Compound NOT metabolized | Bacterial Biotransformation [18]: Compound NOT metabolized | Bacterial Biotransformation [19]: Compound NOT metabolized | Bacterial Biotransformation [20]: Compound metabolized

O=C1CC2(CCCC2)CC(=O)N1CCCCN1CCN(c2ncccn2)CC1 [BUSPIRONE]
Bacterial Biotransformation [1]: Compound NOT metabolized | Bacterial Biotransformation [2]: Compound NOT metabolized | Bacterial Biotransformation [3]: Compound metabolized | Bacterial Biotransformation [4]: Compound NOT metabolized | Bacterial Biotransformation [5]: Compound metabolized | Bacterial Biotransformation [6]: Compound NOT metabolized | Bacterial Biotransformation [7]: Compound NOT metabolized | Bacterial Biotransformation [8]: Compound metabolized | Bacterial Biotransformation [9]: Compound NOT metabolized | Bacterial Biotransformation [10]: Compound NOT metabolized | Bacterial Biotransformation [11]: Compound NOT metabolized | Bacterial Biotransformation [12]: Compound NOT metabolized | Bacterial Biotransformation [13]: Compound NOT metabolized | Bacterial Biotransformation [14]: Compound NOT metabolized | Bacterial Biotransformation [15]: Compound NOT metabolized | Bacterial Biotransformation [16]: Compound metabolized | Bacterial Biotransformation [17]: Compound NOT metabolized | Bacterial Biotransformation [18]: Compound metabolized | Bacterial Biotransformation [19]: Compound NOT metabolized | Bacterial Biotransformation [20]: Compound metabolized

CCN(CC)CCNC(=O)c1cc(S(C)(=O)=O)ccc1OC [TIAPRIDE]
Bacterial Biotransformation [1]: Compound NOT metabolized | Bacterial Biotransformation [2]: Compound NOT metabolized | Bacterial Biotransformation [3]: Compound NOT metabolized | Bacterial Biotransformation [4]: Compound NOT metabolized | Bacterial Biotransformation [5]: Compound metabolized | Bacterial Biotransformation [6]: Compound NOT metabolized | Bacterial Biotransformation [7]: Compound metabolized | Bacterial Biotransformation [8]: Compound NOT metabolized | Bacterial Biotransformation [9]: Compound NOT metabolized | Bacterial Biotransformation [10]: Compound NOT metabolized | Bacterial Biotransformation [11]: Compound NOT metabolized | Bacterial Biotransformation [12]: Compound NOT metabolized | Bacterial Biotransformation [13]: Compound NOT metabolized | Bacterial Biotransformation [14]: Compound NOT metabolized | Bacterial Biotransformation [15]: Compound NOT metabolized | Bacterial Biotransformation [16]: Compound metabolized | Bacterial Biotransformation [17]: Compound NOT metabolized | Bacterial Biotransformation [18]: Compound metabolized | Bacterial Biotransformation [19]: Compound NOT metabolized | Bacterial Biotransformation [20]: Compound metabolized

CC(=O)OCC(CCn1cnc2cnc(N)nc21)COC(C)=O [FAMCICLOVIR]
Bacterial Biotransformation [1]: Compound metabolized | Bacterial Biotransformation [2]: Compound metabolized | Bacterial Biotransformation [3]: Compound metabolized | Bacterial Biotransformation [4]: Compound NOT metabolized | Bacterial Biotransformation [5]: Compound metabolized | Bacterial Biotransformation [6]: Compound metabolized | Bacterial Biotransformation [7]: Compound metabolized | Bacterial Biotransformation [8]: Compound metabolized | Bacterial Biotransformation [9]: Compound metabolized | Bacterial Biotransformation [10]: Compound NOT metabolized | Bacterial Biotransformation [11]: Compound metabolized | Bacterial Biotransformation [12]: Compound metabolized | Bacterial Biotransformation [13]: Compound metabolized | Bacterial Biotransformation [14]: Compound metabolized | Bacterial Biotransformation [15]: Compound metabolized | Bacterial Biotransformation [16]: Compound metabolized | Bacterial Biotransformation [17]: Compound metabolized | Bacterial Biotransformation [18]: Compound metabolized | Bacterial Biotransformation [19]: Compound NOT metabolized | Bacterial Biotransformation [20]: Compound metabolized

CCN(C(C)=O)c1cccc(-c2ccnc3c(C#N)cnn23)c1 [ZALEPLON]
Bacterial Biotransformation [1]: Compound NOT metabolized | Bacterial Biotransformation [2]: Compound metabolized | Bacterial Biotransformation [3]: Compound metabolized | Bacterial Biotransformation [4]: Compound NOT metabolized | Bacterial Biotransformation [5]: Compound metabolized | Bacterial Biotransformation [6]: Compound metabolized | Bacterial Biotransformation [7]: Compound metabolized | Bacterial Biotransformation [8]: Compound metabolized | Bacterial Biotransformation [9]: Compound metabolized | Bacterial Biotransformation [10]: Compound NOT metabolized | Bacterial Biotransformation [11]: Compound NOT metabolized | Bacterial Biotransformation [12]: Compound NOT metabolized | Bacterial Biotransformation [13]: Compound NOT metabolized | Bacterial Biotransformation [14]: Compound metabolized | Bacterial Biotransformation [15]: Compound NOT metabolized | Bacterial Biotransformation [16]: Compound metabolized | Bacterial Biotransformation [17]: Compound NOT metabolized | Bacterial Biotransformation [18]: Compound metabolized | Bacterial Biotransformation [19]: Compound metabolized | Bacterial Biotransformation [20]: Compound metabolized
